Series [1] in a line: Intrinsic clearance in human liver microsomes. To be noted: human liver microsome assay; 1 μM test compound, 0.806 mg/mL protein, NADPH, pH 7.4, 37° C.; mean +/− STD Dev. Format: in vitro ADME. The method, then:
The incubations were conducted at 37° C. […] (Sorvall RC 3C Plus, Thermo Scientific, Waltham, Mass.).
On the technique in general: Liver microsomes are a subcellular fraction often used to study metabolism.

Series [2] can be described thus: Determination of pKa (capillary electrophoresis, Analiza, Inc.). To be noted: mean. Format: physicochemical.
In series [3] the test system is human hepatocytes. Description: High throughput determination of intrinsic clearance in human hepatocytes. Type of series: in vitro ADME. To be noted: high throughput human hepatocyte assay; 0.5 million cells/mL, 1 μM test compound, 37° C.; mean +/− Std Dev. The method, then:
The incubation was carried out at 37° C. […] The samples were centrifuged (Eppendorf, Hauppauge, N.Y.) at 3000 rpm for 5 min at 4° C.

For series [4], the system named is human hepatocytes. Description: Intrinsic clearance in human hepatocytes (relay method). To be noted: 1 μM, 20 h total incubation, mean +/− standard deviation. Type of series: in vitro ADME. The method, then:
For intrinsic clearance (CLint) measurement, hepatocyte relay method was used (Di, L., et al. 2012, Drug Metab. Dispos., 40, 1860-1865 and Di, L., et al. 2013, Drug Metab. Dispos., 41, 2018-2023). Cryopreserved human hepatocytes (Lot DCM from BioreclamationlVT) were used. Upon thawing, the hepatocytes were resuspended in Williams' medium E (custom formula number 91-5233EA; Gibco, Grand Island, N.Y.) supplemented with Hepes and Na2CO3. […] The plates were incubated at 37° C. with 95% air/5% CO2, 75% relative humidity for 4 h at 150 rpm in a humidified incubator. At time 0 and 4 h, 25 μL of hepatocyte suspension was removed from the incubation and added to 50 μL of ice-cold acetonitrile (containing metoprolol, indomethacin, and terfenadine as internal standards) to quench the reaction. The samples were centrifuged (Eppendorf, Hauppauge, N.Y.) at 3000 rpm (1439×g) for 10 min at room temperature, and 50 μL of supernatant was transferred to a clean plate, dried completely, and reconstituted before liquid chromatography/tandem mass spectrometry (LC-MS/MS) analysis. The remaining hepatocyte suspensions in the incubation plate were centrifuged (3000 rpm, 1439×g, 10 min, room temperature). The supernatant of 300 μL was transferred to a clean 24-well plate and stored at −80° C. until the next relay experiment. For the second relay experiment, the supernatant plates were warmed first to room temperature for 30 minutes, then to 37° C. for 30 min, and hepatocytes were added to the samples to give a final cell density of 0.5 million cells/mL. The plates were incubated at 37° C. for 4 h, sampled, and processed as described above. Five relays were performed to give a total incubation time of 20 h, with sampling points at (0, 4, 8, 12, 16 and 20 h). The concentrations of test compound determined at each time point by the LC-MS/MS analysis were used to calculate the intrinsic clearance.

For `CCOc1cccnc1Oc1cncc(-c2ncc(C(=O)NC3(CO)CCOC3)cn2)c1` (single isomer, unassigned) [WO2018033832 Ex. 6b], in series [1], the “CLint (μL/min/mg) (+/− STD Dev)” value is under 11 ± 3.5 µL/min/mg. Further, the “Basic pKa (most basic pKa)” value in series [2] stood at 2.4. The “CLint (μL/min/10^6 cells) (+/− Std Dev)” value in series [3] is listed as <3.3 +/− 0.49 μL/min/10^6 cells. Besides, the “CLint (+/− Std Dev), relay hepatocyte assay” value in series [4] is 2.9 +/− 0.057 μL/min/million cells.

The values are drawn from patent publication US11471458B2, “Diacylglycerol acyl transferase 2 inhibitor” (Pfizer Inc., priority 2019, dated 2022).
